Entries after “also recorded” stand apart in the source; their conditions may differ. Marks after values point to notes of the source that are not given here.
Key:
mice [1] = experiment: Forced-swim test; type: in vivo, CD-1 mice; conditions: vs saline
Screening of = type: in vivo, CD-1 mice; conditions: male mice, three timepoints; for Relative BA (plasma AUClast p.o. / i.p.) / AUClast of (2R,6R)-HNK in plasma / AUC (systemic exposure to (2R,6R)-HNK): 50 mg/kg; for Cmax of (2R,6R)-HNK in plasma: 50 mg/kg of the compound
[2] = Rat pharmacokinetic study of; type: in vivo, Sprague-Dawley rats; conditions: for AUC/dose: plasma
[3] = Mouse pharmacokinetic studies of; type: in vivo, CD-1 mice
mice [4] = experiment: Adverse effects screening; type: in vivo, CD-1 mice
mice [5] = experiment: Open-field test; type: in vivo, CD-1 mice; conditions: vs saline; for Open-field total distance travelled: 15, 50, 150, 450 mg/kg p.o., 60 min after administration
[6] = Canine pharmacokinetic study of; conditions: for AUC0→∞ / t1/2 / Cmax: dog plasma
mice [7] = experiment: Learned helplessness test; type: in vivo, CD-1 mice; conditions: vs saline; for Learned helplessness: escape failures in the last 10 trials: p<0.001
[8] = rats; ref Moaddel et al., 2015; cited from earlier work
[9] = 15 mg/kg i.p., 24-hour re-test, p<0.01
[10] = 15 mg/kg i.p., one hour after administration, p<0.05
[11] = brain, female mice, i.v., 50 mg/kg
[12] = brain, female mice, p.o., 50 mg/kg
[13] = brain, male mice, i.p., 50 mg/kg
[14] = brain, male mice, i.v., 50 mg/kg
[15] = male mice, p.o., 50 mg/kg, cohort p.o. vs i.p.
[16] = male mice, p.o., 10 min, cohort p.o. vs i.v.
[17] = plasma, female mice, i.v., 50 mg/kg
[18] = plasma, female mice, p.o., 50 mg/kg

SMILES: CNC1(c2ccccc2Cl)CCCCC1=O (racemic) [ketamine, (R,S)-ketamine, reference compound]
- Forced-swim test immobility time (mice [1]; [9]): reduced immobility time
- Forced-swim test immobility time (mice [1]; [10]): reduced immobility time

SMILES: N[C@@]1(c2ccccc2Cl)CCC[C@@H](OC(=O)c2ccccc2)C1=O [Compound 2e]
- Relative BA (plasma AUClast p.o. / i.p.) (Screening of): 44%

SMILES: CCCCC(=O)O[C@@H]1CCC[C@@](N)(c2ccccc2Cl)C1=O [Compound 2c]
- Relative BA (plasma AUClast p.o. / i.p.) (Screening of): 26%

SMILES: CCC(=O)O[C@@H]1CCC[C@@](N)(c2ccccc2Cl)C1=O [Compound 2b]
- Relative BA (plasma AUClast p.o. / i.p.) (Screening of): 30%

SMILES: N[C@@]1(c2ccccc2Cl)CCC[C@@H](O)C1=O [(2R,6R)-HNK, (2R,6R)-hydroxynorketamine]
- Cl ([2]; male rats, i.v.): 27 mL/min/kg
- Vss ([2]; male rats, i.v.): 7.5 L/kg
- AUC/dose ([2]; male rats, i.v.): 0.627 µg·kg·h/mL/mg
- AUC/dose ([2]; male rats, p.o.): 0.265 µg·kg·h/mL/mg
- AUC0→∞ ([2]; rat brain, i.v., 10 mg/kg): 6.09 µg·h/mL
- t1/2 ([2]; rat brain, i.v., 10 mg/kg): 8.8 h
- Cmax ([2]; rat brain, i.v., 10 mg/kg, measured five minutes after dosing, not actual peak): 9.13^a μg/mL
- AUC0→∞ ([2]; rat brain, p.o., 10 mg/kg): 2.58 µg·h/mL
- Cmax ([2]; rat brain, p.o., 10 mg/kg): 1.52 µg/mL
- t1/2 ([2]; rat brain, p.o., 10 mg/kg): 5.7 h
- AUC0→∞ ([2]; rat plasma, i.v., 10 mg/kg): 6.27 µg·h/mL
- t1/2 ([2]; rat plasma, i.v., 10 mg/kg): 8.0 h
- Cmax ([2]; rat plasma, i.v., 10 mg/kg, measured five minutes after dosing, not actual peak): 9.56^a μg/mL
- AUC0→∞ ([2]; rat plasma, p.o., 10 mg/kg): 2.65 µg·h/mL
- t1/2 ([2]; rat plasma, p.o., 10 mg/kg): 6.9 h
- Cmax ([2]; rat plasma, p.o., single 10 mg/kg (free drug dose), eight timepoints): 1.50 µg/mL
- BA (absolute oral) ([2]; rats, 10 mg/kg p.o. vs i.v., plasma AUC0→∞): 42%
- Brain to plasma ratio ([2]; rats, both i.v. and p.o., 10 mg/kg): 0.97
- time of peak concentration ([2]; rats, plasma and brain, i.v., 10 mg/kg): 0.083 h
- Forced-swim test immobility time (mice [1]; [9]): reduced immobility time
- Forced-swim test immobility time (mice [1]; [10]): reduced immobility time
- Forced-swim test immobility time (mice [1]; 15-150 mg/kg p.o., 24 h after treatment, p<0.01): reductions in immobility time
- Forced-swim test immobility time (mice [1]; 15-150 mg/kg p.o., one hour after treatment, p<0.05): reductions in immobility time
- AUC0→∞ [3, 11]: 9.53 µg·h/g
- t1/2 [3, 11]: 36 min
- AUC0→∞ [3, 12]: 6.96 µg·h/g
- t1/2 [3, 12]: 42 min
- Cmax ([3]; brain, female mice, p.o., single 50 mg/kg): 11.6 µg/g
- AUC0→∞ [3, 13]: 4.94 µg·h/g
- t1/2 [3, 13]: 24 min
- Cmax ([3]; brain, male mice, i.p., single 50 mg/kg): 12.7 µg/g
- AUC0→∞ [3, 14]: 8.38 µg·h/g
- t1/2 [3, 14]: 30 min
- t1/2 ([3]; brain, male mice, p.o., 50 mg/kg): 42 min
- AUC0→∞ ([3]; brain, male mice, p.o., 50 mg/kg, range of two cohorts): 2.85−5.19 μg/g×h
- Cmax ([3]; brain, male mice, p.o., single 50 mg/kg, range of two cohorts): 6.49−8.60 μg/g
- Absolute BA (plasma AUC0→∞ p.o. / i.v.) ([3]; female mice, 50 mg/kg): 52%
- maximal levels p.o. lower than i.v. ([3]; female mice, 50 mg/kg, plasma): 1.7 ×
- Cl ([3]; female mice, i.v.): 51 mL/min/kg
- Vss ([3]; female mice, i.v.): 0.80 L/kg
- Brain to plasma ratio ([3]; female mice, i.v., 50 mg/kg): 0.67
- AUC/dose ([3]; female mice, i.v., plasma): 0.330 µg·kg·h/mL/mg
- Brain to plasma ratio ([3]; female mice, p.o., 50 mg/kg): 0.95
- AUC/dose ([3]; female mice, p.o., plasma): 0.170 µg·kg·h/mL/mg
- Absolute BA (plasma AUC0→∞ p.o. / i.v.) ([3]; male mice, 50 mg/kg): 46%
- maximal brain concentration p.o. as % of i.p. ([3]; male mice, 50 mg/kg): 51%
- maximal plasma concentration p.o. as % of i.p. ([3]; male mice, 50 mg/kg): 44.1%
- Relative BA (plasma AUC0→∞ p.o. / i.p.) ([3]; male mice, 50 mg/kg, five timepoints): 62%
- highest concentrations p.o. lower than i.p. and i.v. ([3]; male mice, 50 mg/kg, plasma and brain): 2–3 fold
- brain concentration p.o. as % of i.v. ([3]; male mice, 10 min after dosing, 50 mg/kg): 42%
- Brain to plasma ratio ([3]; male mice, i.p., 50 mg/kg): 0.96
- Cl ([3]; male mice, i.v.): 74 mL/min/kg
- Vss ([3]; male mice, i.v.): 1.7 L/kg
- Brain to plasma ratio ([3]; male mice, i.v., 50 mg/kg): 0.86
- AUC/dose ([3]; male mice, i.v., plasma, normalized to free drug dose): 0.226 µg·kg·h/mL/mg
- maximal brain concentration [3, 15]: 6.49 µg/g
- maximal plasma concentration [3, 15]: 5.90 µg/mL
- Brain to plasma ratio ([3]; male mice, p.o., 50 mg/kg, range of two cohorts): 0.90−1.16
- brain concentration at earliest timepoint [3, 16]: 8.60 µg/g
- plasma concentration at earliest timepoint [3, 16]: 5.64 µg/mL
- Brain to plasma exposure ratio (brain penetrance) ([3]; male mice, p.o., cohort p.o. vs i.p.): 0.90
- Brain penetrance (brain to plasma ratio) ([3]; male mice, p.o., cohort p.o. vs i.v.): 1.16
- AUC/dose ([3]; male mice, p.o., plasma, normalized to free drug dose): 0.104 µg·kg·h/mL/mg
- Brain to plasma ratio ([3]; mice and rats, following oral administration (abstract)): 0.67–1.2
- Brain to plasma ratio ([3]; mice, both sexes and all routes of administration): 0.67–1.2
- clearance ([3]; mice, i.v., range of sexes): 51 to 74 mL/min/kg
- dose-normalized plasma exposure (AUC/dose) ([3]; mice, i.v., range of sexes): 0.226 to 0.330 µg·kg·h/mL/mg
- highest plasma concentrations in females higher than in males ([3]; mice, p.o. and i.v., 50 mg/kg): 1.5–2.6 ×
- dose-normalized plasma exposure (AUC/dose) ([3]; mice, p.o., range of sexes): 0.104 to 0.170 µg·kg·h/mL/mg
- Tmax ([3]; mice, plasma and brain, all routes (i.p., p.o., i.v.), 50 mg/kg): 10 min
- half-life (t1/2) ([3]; mice, plasma, range over routes and sexes): 12 to 48 min
- absolute oral BA ([3]; mice, range of males and females): 46–52%
- AUC0→∞ [3, 17]: 14.2 µg·h/mL
- t1/2 [3, 17]: 12 min
- AUC0→∞ [3, 18]: 7.33 µg·h/mL
- t1/2 [3, 18]: 18 min
- Cmax ([3]; plasma, female mice, p.o., single 50 mg/kg): 14.7 µg/mL
- t1/2 ([3]; plasma, male mice, i.p., 50 mg/kg): 30 min
- AUC0→∞ ([3]; plasma, male mice, i.p., single 50 mg/kg): 5.12 µg·h/mL
- Cmax ([3]; plasma, male mice, i.p., single 50 mg/kg (43.1 mg/kg free base), five timepoints): 13.4 µg/mL
- t1/2 ([3]; plasma, male mice, i.v., 50 mg/kg): 30 min
- AUC0→∞ ([3]; plasma, male mice, i.v., single 50 mg/kg): 9.76 µg·h/mL
- t1/2 ([3]; plasma, male mice, p.o., 50 mg/kg): 48 min
- AUC0→∞ ([3]; plasma, male mice, p.o., single 50 mg/kg, range of two cohorts): 3.18−4.49 μg/mL×h
- Backwards movement, mean score±SEM (mice [4]; 450 mg/kg p.o., 60 min): 0
- Ptosis, mean score±SEM (mice [4]; 450 mg/kg p.o., 60 min): 0
- Sniffing, mean score±SEM (mice [4]; 450 mg/kg p.o., 60 min): 0
- Tail flicking, mean score±SEM (mice [4]; 450 mg/kg p.o., 60 min): 0
- Piloerection, mean score±SEM (mice [4]; 450 mg/kg p.o., observed over 60 min, n=4/group): 0.25±0.25
- Overall adverse effects (mice [4]; up to a dose of 450 mg/kg p.o.): minimal, if any, adverse effects
- Open-field total distance travelled (mice [5]): did not alter the total distance travelled at any dose tested
- Open-field total distance travelled (mice [5]; listed as (2R,6R)-hydroxynorketamine): did not alter locomotor activity
- Open-field time spent in the center (central 50%) of the arena (mice [5]; 15-450 mg/kg p.o., 60 min): no significant effect; also recorded: did not alter
- Relative BA (plasma AUClast p.o. / i.p.) (Screening of): 47%
- Cmax of (2R,6R)-HNK in plasma (Screening of; i.p.): 13.4 µg/mL
- AUClast of (2R,6R)-HNK in plasma (Screening of; i.p.): 5.91 µg·h/mL
- Cmax of (2R,6R)-HNK in plasma (Screening of; p.o.): 5.90 µg/mL
- AUC (systemic exposure to (2R,6R)-HNK) (Screening of; p.o.): 2.80 µg/mL/h
- AUClast of (2R,6R)-HNK in plasma (Screening of; p.o.): 2.80 µg·h/mL
- AUC0→∞ ([6]; i.v., 10 mg/kg): 7.83 µg·h/mL
- t1/2 ([6]; i.v., 10 mg/kg): 1.6 h
- Cmax ([6]; i.v., 10 mg/kg, measured five minutes after dosing, not actual peak): 8.87^a μg/mL
- AUC0→∞ ([6]; p.o., 10 mg/kg): 4.54 µg·h/mL
- t1/2 ([6]; p.o., 10 mg/kg): 1.5 h
- Cmax ([6]; p.o., single 10 mg/kg (free drug dose)): 3.44 µg/mL
- BA (absolute oral) ([6]; dogs, 10 mg/kg p.o. vs i.v.): 58%
- time of peak plasma concentration ([6]; dogs, i.v., 10 mg/kg, first collection time point): five minutes
- Tmax ([6]; dogs, plasma, p.o., 10 mg/kg): 16.8 min
- Cl ([6]; male dogs, i.v.): 21 mL/min/kg
- Vss ([6]; male dogs, i.v.): 1.2 L/kg
- AUC/dose ([6]; male dogs, i.v., plasma): 0.783 µg·kg·h/mL/mg
- AUC/dose ([6]; male dogs, p.o., plasma): 0.454 µg·kg·h/mL/mg
- Learned helplessness: escape failures in the last 10 trials (mice [7]; 50 mg/kg i.p., 24 h after treatment): reduced
- Learned helplessness: total number of escape failures (mice [7]; 50 mg/kg i.p., tested 24 h after treatment, p<0.01): reduced the total number of escape failures
- Learned helplessness: escape failures in the last 10 trials (mice [7]; 50 and 150 mg/kg p.o., 24 h after treatment): robust reduction in the number of escape failures; also recorded: effective at reversing helplessness
- Learned helplessness: total number of escape failures (mice [7]; 50 and 150 mg/kg p.o., 24 h after treatment, p<0.05): robust reduction in the number of escape failures; also recorded: effective at reversing helplessness

SMILES: CCCCCCCC(=O)O[C@@H]1CCC[C@@](N)(c2ccccc2Cl)C1=O [Compound 2d]
- Relative BA (plasma AUClast p.o. / i.p.) (Screening of): 10%
- AUC (systemic exposure to (2R,6R)-HNK) (Screening of; p.o.): 0.782 µg/mL/h

SMILES: N[C@]1(c2ccccc2Cl)CCC[C@H](O)C1=O [(2S,6S)-HNK, (2S,6S)-hydroxynorketamine]
- oral BA [8]: approximately 46%

SMILES: CC(=O)O[C@@H]1CCC[C@@](N)(c2ccccc2Cl)C1=O [Compound 2a]
- Relative BA (plasma AUClast p.o. / i.p.) (Screening of): 28%
- AUC (systemic exposure to (2R,6R)-HNK) (Screening of; p.o.): 2.26 µg/mL/h

From article PMC6541551 (Journal of psychopharmacology (Oxford, England), 2018)
